Test system: not given
Assay: not given
Details: not given

| SMILES | melting point |
| --- | --- |
| O=C(O)C1CC(c2ccc(-c3ccc(N4C[C@H](Cn5ccnn5)OC4=O)cc3F)cn2)=NO1 (stereo partly drawn) [Example 22, 3-(5-{2-Fluoro-4-[(5R)-2-oxo-5-(1H-1,2,3-triazol-1-ylmethyl)-1,3-oxazolidin-3-yl]phenyl}pyridin-2-yl)-4,5-dihydroisoxazole-5-carboxylic acid] | 190 to 194 °C |
| O=C1O[C@@H](Cn2ccnn2)CN1c1ccc(-c2ccc(C3=NOC(CS(=O)(=O)CCO)C3)nc2)c(F)c1 (stereo partly drawn) [Example 25, (5R)-3-{3-Fluoro-4-[6-(5-{[(2-hydroxyethyl)sulfonyl]methyl}-4,5-dihydroisoxazol-3-yl)pyridin-3-yl]phenyl}-5-(1H-1,2,3-triazol-1-ylmethyl)-1,3-oxazolidin-2-one] | 210 °C |
| CC(C)C(OC(=O)Cc1ccc2ccccc2c1)C1CC(c2ccc(-c3ccc(N4C[C@H](Cn5ccnn5)OC4=O)cc3F)cn2)=NO1 (single isomer, unassigned) [Example 30] | 85 °C |
| O=C(OC[C@@H](O)[C@@H]1CC(c2ccc(-c3ccc(N4C[C@H](Cn5ccnn5)OC4=O)cc3F)cn2)=NO1)c1cccnc1 [Example 57, (2R)-2-[(5S)-3-(5-{2-Fluoro-4-[(5R)-2-oxo-5-(1H-1,2,3-triazol-1-ylmethyl)-1,3-oxazolidin-3-yl]phenyl}pyridin-2-yl)-4,5-dihydroisoxazol-5-yl]-2-hydroxyethyl nicotinate] | 210 °C |
| COCCC(=O)OC[C@@H](O)[C@@H]1CC(c2ccc(-c3ccc(N4C[C@H](Cn5ccnn5)OC4=O)cc3F)cn2)=NO1 [Example 56, (2R)-2-[(5S)-3-(5-{2-Fluoro-4-[(5R)-2-oxo-5-(1H-1,2,3-triazol-1-ylmethyl)-1,3-oxazolidin-3-yl]phenyl}pyridin-2-yl)-4,5-dihydroisoxazol-5-yl]-2-hydroxyethyl 3-methoxypropanoate] | 130 °C |
| CCN(CC)CCC(=O)OC[C@@H]1CC(c2ccc(-c3ccc(N4C[C@H](Cn5ccnn5)OC4=O)cc3F)cn2)=NO1 [Example 43, [(5S)-3-(5-{2-Fluoro-4-[(5R)-2-oxo-5-(1H-1,2,3-triazol-1-ylmethyl)-1,3-oxazolidin-3-yl]phenyl}pyridin-2-yl)-4,5-dihydroisoxazol-5-yl]methyl N,N-diethyl-β-alaninate] | 167 °C |
| CN1CCC(O)(C2CC(c3ccc(-c4ccc(N5C[C@H](Cn6ccnn6)OC5=O)cc4F)cn3)=NO2)CC1 (stereo partly drawn) [Example 34, (5R)-3-(3-Fluoro-4-{6-[5-(4-hydroxy-1-methylpiperidin-4-yl)-4,5-dihydroisoxazol-3-yl]pyridin-3-yl}phenyl)-5-(1H-1,2,3-triazol-1-ylmethyl)-1,3-oxazolidin-2-one] | 73 °C |
| CC(C)(O)C1CC(c2ccc(-c3ccc(N4C[C@H](Cn5ccnn5)OC4=O)cc3F)cn2)=NO1 (stereo partly drawn) [Example 15, (5R)-3-(3-Fluoro-4-{6-[5-(1-hydroxy-1-methylethyl)-4,5-dihydroisoxazol-3-yl]pyridin-3-yl}phenyl)-5-(1H-1,2,3-triazol-1-ylmethyl)-1,3-oxazolidin-2-one] | 197 °C |
| COC[C@@H]1CC(c2ccc(-c3ccc(N4C[C@H](Cn5ccnn5)OC4=O)cc3F)cn2)=NO1 [Example 64, (5R)-3-(3-Fluoro-4-{6-[(5S)-5-(methoxymethyl)-4,5-dihydroisoxazol-3-yl]pyridin-3-yl}phenyl)-5-(1H-1,2,3-triazol-1-ylmethyl)-1,3-oxazolidin-2-one] | 172 °C |
| CNC(=O)C1CC(c2ccc(-c3ccc(N4C[C@H](Cn5ccnn5)OC4=O)cc3F)cn2)=NO1 (stereo partly drawn) [Example 24, 3-(5-{2-Fluoro-4-[(5R)-2-oxo-5-(1H-1,2,3-triazol-1-ylmethyl)-1,3-oxazolidin-3-yl]phenyl}pyridin-2-yl)-N-methyl-4,5-dihydroisoxazole-5-carboxamide] | 185 to 195 °C |
| O=C1O[C@@H](Cn2ccnn2)CN1c1ccc(-c2ccc(C3=NOC(CNCCc4ccncc4)C3)nc2)c(F)c1 (stereo partly drawn) [Example 33, (5R)-3-{3-Fluoro-4-[6-(5-{[(2-pyridin-4-ylethyl)amino]methyl}-4,5-dihydroisoxazol-3-yl)pyridin-3-yl]phenyl}-5-(1H-1,2,3-triazol-1-ylmethyl)-1,3-oxazolidin-2-one] | 181 °C |
| O=C1O[C@@H](Cn2ccnn2)CN1c1ccc(-c2ccc(C3=NOC(C4(O)CCCC4)C3)nc2)c(F)c1 (stereo partly drawn) [Example 28, (5R)-3-(3-Fluoro-4-{6-[5-(1-hydroxycyclopentyl)-4,5-dihydroisoxazol-3-yl]pyridin-3-yl}phenyl)-5-(1H-1,2,3-triazol-1-ylmethyl)-1,3-oxazolidin-2-one] | 225 °C |
| O=C1O[C@@H](Cn2ccnn2)CN1c1ccc(-c2ccc(C3=NO[C@H](CSCCO)C3)nc2)c(F)c1 [Example 60, (5R)-3-{3-Fluoro-4-[6-((5S)-5-{[(2-hydroxyethyl)thio]methyl}-4,5-dihydroisoxazol-3-yl)pyridin-3-yl]phenyl}-5-(1H-1,2,3-triazol-1-ylmethyl)-1,3-oxazolidin-2-one] | 162 °C |
| O=C1O[C@@H](Cn2ccnn2)CN1c1ccc(-c2ccc(C3=NOC(C(O)c4ccccc4)C3)nc2)c(F)c1 (single isomer, unassigned) [Example 26] | 182 °C |
| CN(C)C(=O)C1CC(c2ccc(-c3ccc(N4C[C@H](Cn5ccnn5)OC4=O)cc3F)cn2)=NO1 (stereo partly drawn) [Example 23, 3-(5-{2-Fluoro-4-[(5R)-2-oxo-5-(1H-1,2,3-triazol-1-ylmethyl)-1,3-oxazolidin-3-yl]phenyl}pyridin-2-yl)-N,N-dimethyl-4,5-dihydroisoxazole-5-carboxamide] | 180 to 190 °C |
| N.N.N.N.O=C1O[C@@H](Cn2ccnn2)CN1c1ccc(-c2ccc(C3=NO[C@H]([C@@H](COP(=O)(O)O)OP(=O)(O)O)C3)nc2)c(F)c1 [Example 59, Phosphoric acid mono-(1R)-[(5R)-2-(3-{(5S)-[2-fluoro-4-(2-oxo-5-[1,2,3]triazol-1-ylmethyl-oxazolidin-3-yl)-phenyl]-pyridin-2-yl}-4,5-dihydro-isoxazol-5-yl)-2-phosphonooxy-ethyl]ester, tetrakis ammonium salt] | 175 to 180 °C (dec.) |
| CC(C)C(O)C1CC(c2ccc(-c3ccc(N4C[C@H](Cn5ccnn5)OC4=O)cc3F)cn2)=NO1 (single isomer, unassigned) [Example 32] | 155 °C |
| O=C1O[C@@H](Cn2ccnn2)CN1c1ccc(-c2ccc(C3=NO[C@H](COC(F)(F)F)C3)nc2)c(F)c1 [Example 61] | 185 °C |
| O=C1O[C@@H](Cn2ccnn2)CN1c1ccc(-c2ccc(C3=NO[C@H](COCC(F)(F)F)C3)nc2)c(F)c1 [Example 62] | 199 °C |
| O=C1O[C@@H](Cn2ccnn2)CN1c1ccc(-c2ccc(C3=NOC(CS(=O)(=O)CCc4ccncc4)C3)nc2)c(F)c1 (stereo partly drawn) [Example 35, (5R)-3-{3-Fluoro-4-[6-(5-{[(2-pyridin-4-ylethyl)sulfonyl]methyl}-4,5-dihydroisoxazol-3-yl)pyridin-3-yl]phenyl}-5-(1H-1,2,3-triazol-1-ylmethyl)-1,3-oxazolidin-2-one] | 195 °C |
| CC(C)(C)OC(=O)C1CC(c2ccc(-c3ccc(N4C[C@H](Cn5ccnn5)OC4=O)cc3F)cn2)=NO1 (some centres unmarked) [Example 21] | 165 to 168 °C |
| COCCOC(=O)OC[C@@H](O)[C@@H]1CC(c2ccc(-c3ccc(N4C[C@H](Cn5ccnn5)OC4=O)cc3F)cn2)=NO1 [Example 58, (2R)-2-[(5S)-3-(5-{2-Fluoro-4-[(5R)-2-oxo-5-(1H-1,2,3-triazol-1-ylmethyl)-1,3-oxazolidin-3-yl]phenyl}pyridin-2-yl)-4,5-dihydroisoxazol-5-yl]-2-hydroxyethyl 2-methoxyethyl carbonate] | 125 °C |

Biological target: T1, MAO-A (Homo sapiens, UniProt P21397)
T1 sequence (P21397 1-527): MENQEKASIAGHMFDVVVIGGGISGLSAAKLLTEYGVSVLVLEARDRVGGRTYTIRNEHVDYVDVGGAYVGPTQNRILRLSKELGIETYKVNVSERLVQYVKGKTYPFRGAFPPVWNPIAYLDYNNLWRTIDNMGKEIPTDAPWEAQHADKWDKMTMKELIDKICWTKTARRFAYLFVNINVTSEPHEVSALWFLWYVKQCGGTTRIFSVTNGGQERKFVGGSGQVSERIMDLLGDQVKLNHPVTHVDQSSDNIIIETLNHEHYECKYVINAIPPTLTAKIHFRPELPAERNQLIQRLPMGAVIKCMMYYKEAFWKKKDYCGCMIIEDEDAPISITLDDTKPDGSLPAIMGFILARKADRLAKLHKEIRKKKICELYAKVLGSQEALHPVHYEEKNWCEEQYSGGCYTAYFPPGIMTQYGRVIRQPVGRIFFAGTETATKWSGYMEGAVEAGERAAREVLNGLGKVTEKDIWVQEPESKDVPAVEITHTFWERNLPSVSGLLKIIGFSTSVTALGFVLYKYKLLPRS
Assay: MAO-A inhibition (Ki)
Assay type: biochemical
Details: * = approximate values

| SMILES | Ki [µM] |
| --- | --- |
| O=C1O[C@@H](Cn2ccnn2)CN1c1ccc(-c2ccc(C3=NO[C@@H]([C@@H](O)CO)C3)nc2)c(F)c1 [Example 54, (5R)-3-[4-(6-{(5R)S-5-[(1S)-1,2-Dihydroxyethyl]-4,5-dihydroisoxazol-3-yl}pyridin-3-yl)-3-fluorophenyl]-5-(1H-1,2,3-triazol-1-ylmethyl)-1,3-oxazolidin-2-one] | 8 |
| O=C1O[C@@H](Cn2ccnn2)CN1c1ccc(-c2ccc(C3=NO[C@H]([C@@H](O)CO)C3)nc2)c(F)c1 [Example 53, (5R)-3-[4-(6-{(5S)-[(1S)-1,2-Dihydroxyethyl]-4,5-dihydroisoxazol-3-yl}pyridin-3-yl)-3-fluorophenyl]-5-(1H-1,2,3-triazol-1-ylmethyl)-1,3-oxazolidin-2-one] | 60 |
| O=C1O[C@@H](Cn2ccnn2)CN1c1ccc(-c2ccc(C3=NO[C@H]([C@H](O)CO)C3)nc2)c(F)c1 [Example 51, (5R)-3-[4-(6-{(5S)-5-[(1R)-1,2-Dihydroxyethyl]-4,5-dihydroisoxazol-3-yl}pyridin-3-yl)-3-fluorophenyl]-5-(1H-1,2,3-triazol-1-ylmethyl)-1,3-oxazolidin-2-one] | ~60 |
| O=C1O[C@@H](Cn2ccnn2)CN1c1ccc(-c2ccc(C3=NO[C@@H]([C@H](O)CO)C3)nc2)c(F)c1 [Example 52, (5R)-3-[4-(6-{(5R)-5-[(1R)-1,2-Dihydroxyethyl]-4,5-dihydroisoxazol-3-yl}pyridin-3-yl)-3-fluorophenyl]-5-(1H-1,2,3-triazol-ylmethyl)-1,3-oxazolidin-2-one] | ~35 |
